The values that follow come from ChEMBL document CHEMBL1126430, “The role of arginine in interactions of microcystins with protein phosphatases 1 and 2a” (Bioorg Med Chem Lett, 1992).

The structures appear in SMILES notation. Starred links: 1 amine or outer side, 2 acyl side, 3 side chain; linkers in the order of their positions; H or OH if unused. Positions of bridges follow the written chain, without caps; N, C: chain ends. Non-standard residues stand in square brackets, D forms with d. Residues, ends and D or L forms follow the SMILES beside them. Adda = CO[C@@H](Cc1ccccc1)[C@@H](C)/C=C(C)/C=C/[C@H](N[*:1])[C@H](C)C(=O)[*:2]; dAsp(3S-Me) = C[C@H](C(=O)[*:3])[C@@H](N[*:1])C(=O)[*:2]; d(γGlu) = O=C(O)[C@@H](CCC(=O)[*:2])N[*:1]; NMeDha = C=C(NC)C(=O)O

Test [1] can be described thus: Effective dose that causes 50 % inhibition of protein phosphatase 2A (PP2A), isolated from mouse skin.
Test [2] is described as follows: Compound was evaluated for the ability to inhibit dephosphorylation of [32P]phosphorylase by protein phosphatase 2A (PP2A).
Test [3] is described as follows: Compound was evaluated for the ability to inhibit specific [3H]-okadaic acid binding to protein phosphatase 2A (PP2A).
A short description of test [4]: Compound was evaluated for the ability to inhibit dephosphorylation of [32P]phosphorylase by Protein phosphatase 1.
The nature of test [5]: Compound was evaluated for the ability to inhibit specific [3H]-okadaic acid binding to Protein phosphatase 1.

In test [1], `CC=C1C(=O)N[C@@H](C(=O)O)[C@H](C)C(=O)N[C@@H](CCCNC(=N)N)C(=O)N[C@@H](/C=C/C(C)=C/[C@H](C)[C@H](Cc2ccccc2)OC)[C@H](C)C(=O)N[C@@H](C(=O)O)CCC(=O)N1C` displayed an ED50 of 900 pM.
As for `C=C1C(=O)N[C@H](C)C(=O)N[C@@H](CC(C)C)C(=O)N[C@@H](C(=O)O)[C@H](C)C(=O)N[C@@H](C)C(=O)N[C@@H](/C=C/C(C)=C/[C@H](C)[C@H](Cc2ccccc2)OC)[C@H](C)C(=O)N[C@@H](C(=O)O)CCC(=O)N1C` (A[Adda][d(γGlu)][NMeDha][dA]L[dAsp(3S-Me)]-OH; lactam N-7), the ED50 came out at 380 pM in test [2], 10000 pM in test [3], 900 pM in test [4] and 10600 pM in test [5].
Take `C=C1C(=O)N[C@H](C)C(=O)N[C@@H](CC(C)C)C(=O)N[C@@H](C(=O)O)[C@H](C)C(=O)N[C@@H](CCCNC(=N)N)C(=O)N[C@@H](/C=C/C(C)=C/[C@H](C)[C@H](Cc2ccccc2)OC)[C@H](C)C(=O)N[C@@H](C(=O)O)CCC(=O)N1C` (R[Adda][d(γGlu)][NMeDha][dA]L[dAsp(3S-Me)]-OH; lactam N-7): the ED50 in test [2] came to 320 pM; in test [3], 5200 pM; in test [4] it was 440 pM; in test [1], 800 pM; in test [5], 7800 pM.
